Test results published in ChEMBL document CHEMBL1201862, “PubChem BioAssay data set” (2004).
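Method: 48-hour compound exposure of cells in 96-well plates, five concentrations, linear interpolation of endpoints. At the GI50, growth is halved.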 Calls of active or inactive are those of the source. Rule as the data show it: active = GI50 up to about 1.1 µM and inactive = higher.

Legend:
Experiment in all cases: NCI-60 cell line screen, 48 h
786-0 = tested on: 786-0
A498 = tested on: A498
A549 = tested on: A549
ACHN = tested on: ACHN
CAKI-1 = tested on: CAKI-1
CCRF-CEM = tested on: CCRF-CEM
COLO 205 = tested on: COLO 205
DLD-1 = tested on: DLD-1
DMS-114 = tested on: DMS-114
DMS-273 = tested on: DMS-273
HCT-116 = tested on: HCT-116
HCT-15 = tested on: HCT-15
HL-60 = tested on: HL-60
HOP-18 = tested on: HOP-18
HOP-62 = tested on: HOP-62
HOP-92 = tested on: HOP-92
HT-29 = tested on: HT-29
IGROV-1 = tested on: IGROV-1
K562 = tested on: K562
KM12 = tested on: KM12
LOX IMVI = tested on: LOX IMVI
LXFL 529 = tested on: LXFL 529
M14 = tested on: M14
M19-MEL = tested on: M19-MEL
MOLT-4 = tested on: MOLT-4
Malme-3M = tested on: Malme-3M
NCI-H226 = tested on: NCI-H226
NCI-H23 = tested on: NCI-H23
NCI-H460 = tested on: NCI-H460
NCI-H522 = tested on: NCI-H522
OVCAR-4 = tested on: OVCAR-4
OVCAR-5 = tested on: OVCAR-5
OVCAR-8 = tested on: OVCAR-8
RPMI-8226 = tested on: RPMI-8226
RXF 393 = tested on: RXF 393
SF-268 = tested on: SF-268
SF-295 = tested on: SF-295
SF-539 = tested on: SF-539
SK-MEL-2 = tested on: SK-MEL-2
SK-MEL-5 = tested on: SK-MEL-5
SK-OV-3 = tested on: SK-OV-3
SN12C = tested on: SN12C
SNB-75 = tested on: SNB-75
SR = tested on: SR
SW-620 = tested on: SW-620
TK-10 = tested on: TK-10
U-251 = tested on: U-251
UACC-257 = tested on: UACC-257
UACC-62 = tested on: UACC-62
UO-31 = tested on: UO-31
SNB-78 = tested on: SNB-78

In the case of COc1ccc(C2S/C(=C\c3cccc(O)c3)C(=O)N2NC(=O)Cc2ccccc2)cc1 (centres undefined), the GI50 (786-0) is reported as > 100 µM (inactive), the GI50 (A498) is reported as > 100 µM (inactive) and the GI50 (A549) is reported as > 100 µM (inactive). For the same compound, the GI50 (ACHN) was > 100 µM (inactive), the GI50 (CAKI-1) was > 100 µM (inactive) and the GI50 (CCRF-CEM) was > 100 µM (inactive). For the same compound, the GI50 (COLO 205) was > 100 µM (inactive), the GI50 (DLD-1) was > 100 µM (inactive) and the GI50 (DMS-114) was > 100 µM (inactive). The GI50 (DMS-273) was > 100 µM (inactive), the GI50 (HCT-116) was > 100 µM (inactive) and the GI50 (HCT-15) was > 100 µM. For the same compound, the GI50 (HL-60) was > 100 µM (inactive), the GI50 (HOP-18) was > 100 µM (inactive) and the GI50 (HOP-62) was > 100 µM (inactive). The GI50 (HOP-92) was > 100 µM (inactive), the GI50 (HT-29) was > 100 µM (inactive) and the GI50 (IGROV-1) was > 100 µM (inactive). For the same compound, the GI50 (K562) was > 100 µM (inactive), the GI50 (KM12) was > 100 µM (inactive) and the GI50 (LOX IMVI) was > 100 µM (inactive). For the same compound, the GI50 (LXFL 529) was > 100 µM (inactive), the GI50 (M14) was > 100 µM (inactive) and the GI50 (M19-MEL) was > 100 µM (inactive). The GI50 (MOLT-4) was > 100 µM (inactive), the GI50 (Malme-3M) was > 100 µM (inactive) and the GI50 (NCI-H226) was > 100 µM (inactive). For the same compound, the GI50 (NCI-H23) was > 100 µM (inactive), the GI50 (NCI-H460) was > 100 µM (inactive) and the GI50 (NCI-H522) was > 100 µM (inactive). For the same compound, the GI50 (OVCAR-4) was > 100 µM (inactive), the GI50 (OVCAR-5) was > 100 µM (inactive) and the GI50 (OVCAR-8) was > 100 µM (inactive). For the same compound, the GI50 (RPMI-8226) was > 100 µM (inactive), the GI50 (RXF 393) was 12 µM (inactive) and the GI50 (SF-268) was > 100 µM (inactive). For the same compound, the GI50 (SF-295) was > 100 µM (inactive), the GI50 (SF-539) was > 100 µM (inactive) and the GI50 (SK-MEL-2) was > 100 µM (inactive). The GI50 (SK-MEL-5) was > 100 µM (inactive), the GI50 (SK-OV-3) was > 100 µM (inactive) and the GI50 (SN12C) was > 100 µM (inactive). For the same compound, the GI50 (SNB-75) was > 100 µM (inactive), the GI50 (SR) was > 100 µM (inactive) and the GI50 (SW-620) was > 100 µM (inactive). For the same compound, the GI50 (TK-10) was > 100 µM (inactive), the GI50 (U-251) was > 100 µM (inactive) and the GI50 (UACC-257) was > 100 µM (inactive). The GI50 (UACC-62) was > 100 µM (inactive) and the GI50 (UO-31) was > 100 µM (inactive).
In the case of C=C(Br)C(C)(Cl)CCC(Br)C(C)(C)Br (centres undefined), the GI50 (786-0) is reported as > 100 µM (inactive), the GI50 (A549) is reported as 40.9 µM (inactive) and the GI50 (ACHN) is reported as > 100 µM (inactive). For the same compound, the GI50 (CAKI-1) was > 100 µM (inactive), the GI50 (CCRF-CEM) was 22.5 µM (inactive) and the GI50 (COLO 205) was 57 µM (inactive). For the same compound, the GI50 (DLD-1) was 91.8 µM (inactive), the GI50 (DMS-114) was 25.4 µM (inactive) and the GI50 (DMS-273) was 39.4 µM (inactive). For the same compound, the GI50 (HCT-116) was 31.9 µM (inactive), the GI50 (HCT-15) was 67 µM and the GI50 (HL-60) was 19.9 µM (inactive). The GI50 (HOP-18) was > 100 µM (inactive), the GI50 (HOP-62) was > 100 µM (inactive) and the GI50 (HOP-92) was 32.7 µM (inactive). The GI50 (HT-29) was 47.2 µM (inactive), the GI50 (IGROV-1) was > 100 µM (inactive) and the GI50 (K562) was 27.4 µM (inactive). For the same compound, the GI50 (KM12) was 99.1 µM (inactive), the GI50 (LOX IMVI) was 16.6 µM (inactive) and the GI50 (LXFL 529) was 83 µM (inactive). The GI50 (M14) was 50.4 µM (inactive), the GI50 (M19-MEL) was 34 µM (inactive) and the GI50 (MOLT-4) was 31 µM (inactive). For the same compound, the GI50 (Malme-3M) was 69 µM (inactive), the GI50 (NCI-H226) was > 100 µM (inactive) and the GI50 (NCI-H23) was 72.8 µM (inactive). For the same compound, the GI50 (NCI-H460) was 47.5 µM (inactive), the GI50 (NCI-H522) was 43.8 µM (inactive) and the GI50 (OVCAR-4) was > 100 µM (inactive). For the same compound, the GI50 (OVCAR-5) was 37.2 µM (inactive), the GI50 (OVCAR-8) was > 100 µM (inactive) and the GI50 (RPMI-8226) was 25.9 µM (inactive). For the same compound, the GI50 (RXF 393) was 22.4 µM (inactive), the GI50 (SF-295) was 47.2 µM (inactive) and the GI50 (SF-539) was > 100 µM (inactive). For the same compound, the GI50 (SK-MEL-2) was 29.2 µM (inactive), the GI50 (SK-MEL-5) was 65.3 µM (inactive) and the GI50 (SK-OV-3) was > 100 µM (inactive). The GI50 (SN12C) was > 100 µM (inactive), the GI50 (SNB-75) was 46 µM (inactive) and the GI50 (SNB-78) was > 100 µM (inactive). The GI50 (SR) was 22.1 µM (inactive), the GI50 (SW-620) was 79.8 µM (inactive) and the GI50 (TK-10) was > 100 µM (inactive). The GI50 (U-251) was 88.9 µM (inactive), the GI50 (UACC-257) was 78.7 µM (inactive) and the GI50 (UACC-62) was 47.6 µM (inactive). The GI50 (UO-31) was 84.3 µM (inactive).
